Tests used:
Human Arginase 1 = Human Arginase 1 (Homo sapiens (Human), UniProt P05089); assay: Human Arginase 1 enzyme inhibition (thioarginine/DTNB absorbance assay); format: biochemical; details: recombinant enzyme 5 nM, 0.5 mM thioarginine premix, 60 min
Description: (§1) The thiol group was detected with Ellman's reagent, 5,5′-dithiobis(2-nitrobenzoic acid) (DTNB). DTNB reacts with the thiol to give the mixed disulfide and 2-nitro-5-thiobenzoic acid (TNB) which is quantified by the absorbance of the anion (TNB^2−) at 412 nm.
(§2) The assays were run in clear 384 well plates (Greiner cat no: 781101). […] Two pre-mixes were prepared from reagents thawed immediately before addition to assay plates. Pre-mix one comprised human Arginase 1 or human Arginase 2, at a final concentration of 5 nM and 0.5 mM DTNB in assay buffer, 45 mM HEPES pH7.5, brij 35, 0.045% (w/v) and 100 μM MnCl2. Pre-mix two comprised freshly thawed 0.5 mM thioarginine in assay buffer.
(§3) Assay plates were centrifuged prior to reading absorbance at 412 nm in a Pherastar multi-mode plate reader to collect data at time point 0 (T0). The plates were incubated at room temperature for 60 min prior to reading again to collect data at time point 1 (T1). Data is derived by subtracting the A412 signal measured at T0 (time point 0) from that measured at T1 (time point 1). The data was transformed to % effect using the equation: Compound % effect=100*[(X−min)/(max−min)], where X represents the normalized value for the compound based on the Min (vehicle) and Max (reference compound) inhibition control.

Human Arginase 2 = Human Arginase 2 (Homo sapiens (Human), UniProt P78540); assay: Human Arginase 2 enzyme inhibition (thioarginine/DTNB absorbance assay); format: biochemical; details: recombinant enzyme 5 nM, 0.5 mM thioarginine premix, 60 min
Description: as §1, §2, §3

[1] = Bioavailability / pharmacokinetic study in male rats (IV and PO); format: in vivo, rat; details: plasma, pro-drug itself, observed when dosed as pro-drug, male rat; for clearance / Vd: IV 2 mg/kg; for Vd: read-out: Vdss; for AUC / Cmax / Tmax: PO 5 mg/kg; for bioavailability: PO 5 mg/kg vs IV 2 mg/kg
Description: Example 8 was formulated in 0.9% w/v saline pH 4 (adjusted with 1M HCl) for IV dosing. The formulation was dosed at 2 mg/kg by femoral catheter to two male rats each (170-250 g). Jugular vein catheter serial blood samples were taken at 0.033, 0.083, 0.167, 0.5, 1, 2, 4, 8, and 24 hrs post-dose. For PO dosing, Example 8 was formulated in deionized water pH 4 (adjusted with 1M HCl) and dosed at 5 mg/kg by oral gavage to two male rats each (170-250 g). Serial blood samples were taken by jugular vein catheter at 0.25, 0.5, 1, 1.5, 2, 3, 4, 8, and 24 hrs post dose. Plasma samples were generated from blood using low speed centrifugation. […] The samples and standards were extracted by precipitation with two volumes of acetonitrile followed by centrifugation. […] Where appropriate, measured and not nominal doses were used to calculate bioavalability.

Human Arginase 1, sequence (P05089 whole entry): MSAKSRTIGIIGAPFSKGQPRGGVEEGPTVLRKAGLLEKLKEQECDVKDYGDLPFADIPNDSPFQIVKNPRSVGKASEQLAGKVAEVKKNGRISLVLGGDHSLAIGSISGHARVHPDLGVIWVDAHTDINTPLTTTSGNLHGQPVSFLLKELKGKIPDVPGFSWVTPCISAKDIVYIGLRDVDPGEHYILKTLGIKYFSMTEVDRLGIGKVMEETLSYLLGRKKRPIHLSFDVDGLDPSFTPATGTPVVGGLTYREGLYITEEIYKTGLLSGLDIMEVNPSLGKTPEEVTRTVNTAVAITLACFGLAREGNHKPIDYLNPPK
Human Arginase 2, sequence (P78540 23-354): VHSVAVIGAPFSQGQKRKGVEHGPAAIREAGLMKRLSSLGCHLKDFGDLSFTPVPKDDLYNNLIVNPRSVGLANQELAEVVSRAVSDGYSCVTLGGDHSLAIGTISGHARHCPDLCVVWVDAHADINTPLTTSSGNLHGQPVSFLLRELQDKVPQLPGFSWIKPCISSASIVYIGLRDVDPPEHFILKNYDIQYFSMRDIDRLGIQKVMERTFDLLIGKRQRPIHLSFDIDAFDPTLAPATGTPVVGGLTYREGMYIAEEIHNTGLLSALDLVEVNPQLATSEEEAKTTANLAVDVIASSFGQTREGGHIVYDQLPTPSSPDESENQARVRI

| Structure (SMILES) | IC50 (Human Arginase 1) | IC50 (Human Arginase 2) | clearance [1] | Vd [1] | AUC [1] | Cmax [1] | Tmax [1] | bioavailability [1] |
| --- | --- | --- | --- | --- | --- | --- | --- | --- |
| CC(C)[C@H](N)C(=O)N[C@H]1CN[C@@](CCCCB(O)O)(C(=O)O)C1 [Example 9, (2R,4R)-4-((S)-2-amino-3-methylbutanamido)-2-(4-boronobutyl)pyrrolidine-2-carboxylic acid] | 320 nM | 330 nM | 33.3 mL/min/kg | 0.2 L/kg | 0.24 µM·h | 600 nM | 15 min | 3.2% |
| C[C@H](N)C(=O)N[C@H]1CN[C@@](CCCCB(O)O)(C(=O)O)C1 [Example 8, (2R,4R)-4-((S)-2-aminopropanamido)-2-(4-boronobutyl)pyrrolidine-2-carboxylic acid] | 610 nM | 560 nM |  |  |  |  |  |  |
| NCCN[C@H]1CN[C@@](CCCCB(O)O)(C(=O)O)C1 [Example 27, (2R,4R)-4-(2-aminoethylamino)-2-(4-boronobutyl)pyrrolidine-2-carboxylic acid] | 1430 nM | 3320 nM |  |  |  |  |  |  |
| O=C(O)[C@@]1(CCCCB(O)O)C[C@@H](O)CN1 [Example 3, (2R,4R)-2-(4-boronobutyl)-4-hydroxypyrrolidine-2-carboxylic acid] | 4550 nM | 10400 nM |  |  |  |  |  |  |
| CN(C)[C@H]1CN[C@@](CCCCB(O)O)(C(=O)O)C1 [Example 25, (2R,4R)-2-(4-boronobutyl)-4-(dimethylamino)pyrrolidine-2-carboxylic acid] | 10800 nM | 24600 nM |  |  |  |  |  |  |
| CC(C)(O)[C@H](N)C(=O)N[C@H]1CN[C@@](CCCCB(O)O)(C(=O)O)C1 [Example 20, (2R,4R)-4-[[(2S)-2-amino-3-hydroxy-3-methyl-butanoyl]amino]-2-(4-boronobutyl)pyrrolidine-2-carboxylic acid] | 340 nM | 520 nM | 8.9 mL/min/kg | 0.29 L/kg | 6.9 µM·h | 1800 nM | 60 min | 25.5% |
| NCC(=O)N[C@H]1CN[C@@](CCCCB(O)O)(C(=O)O)C1 [Example 13, (2R,4R)-4-(2-aminoacetamido)-2-(4-boronobutyl)pyrrolidine-2-carboxylic acid] | 430 nM | 630 nM | 17.9 mL/min/kg | 0.2 L/kg | 0.62 µM·h | 460 nM | 30 min | 3.8% |
| O=C(N[C@H]1CN[C@@](CCCCB(O)O)(C(=O)O)C1)[C@@H]1CCCN1 [Example 12, (2R,4R)-2-(4-boronobutyl)-4-((S)-pyrrolidine-2-carboxamido)pyrrolidine-2-carboxylic acid] | 700 nM | 850 nM |  |  |  |  |  |  |
| N[C@@H](CO)C(=O)N[C@H]1CN[C@@](CCCCB(O)O)(C(=O)O)C1 [Example 17, (2R,4R)-4-((S)-2-amino-3-hydroxypropanamido)-2-(4-boronobutyl)pyrrolidine-2-carboxylic acid] | 200 nM | 230 nM | 40.5 mL/min/kg | 0.36 L/kg | 0.38 µM·h | 430 nM | 22.8 min | 5.8% |
| CC[C@H](C)[C@H](N)C(=O)N[C@H]1CN[C@@](CCCCB(O)O)(C(=O)O)C1 [Example 15, (2R,4R)-4-((2S,3S)-2-amino-3-methylpentanamido)-2-(4-boronobutyl)pyrrolidine-2-carboxylic acid] | 310 nM | 260 nM | 104 mL/min/kg | 0.46 L/kg |  |  |  |  |
| O=C(O)[C@@]1(CCCCB(O)O)CCCN1 [Example 1, (R)-2-(4-boronobutyl)pyrrolidine-2-carboxylic acid] | 14700 nM | 23000 nM |  |  |  |  |  |  |
| NCCN[C@H]1CN[C@](CCCCB(O)O)(C(=O)O)C1 [Example 28, (2S,4R)-4-(2-aminoethylamino)-2-(4-boronobutyl)pyrrolidine-2-carboxylic acid] | 90 nM | 190 nM |  |  |  |  |  |  |
| CN[C@H]1CN[C@@](CCCCB(O)O)(C(=O)O)C1 [Example 23, (2R,4R)-2-(4-boronobutyl)-4-(methylamino)pyrrolidine-2-carboxylic acid] | 1140 nM | 2120 nM |  |  |  |  |  |  |
| CC(C)[C@H](N)C(=O)N(C)[C@H]1CN[C@@](CCCCB(O)O)(C(=O)O)C1 [Example 29, (2R,4R)-4-[[(2S)-2-amino-3-methyl-butanoyl]-methyl-amino]-2-(4-boronobutyl)pyrrolidine-2-carboxylic acid] | 5270 nM | 9280 nM |  |  |  |  |  |  |
| CC(C)C[C@H](N)C(=O)N[C@H]1CN[C@@](CCCCB(O)O)(C(=O)O)C1 [Example 16, (2R,4R)-4-((S)-2-amino-4-methylpentanamido)-2-(4-boronobutyl)pyrrolidine-2-carboxylic acid] | 310 nM | 310 nM | 585 mL/min/kg | 7.41 L/kg |  |  |  |  |
| O=C(O)[C@@]1(CCCCB(O)O)C[C@H](O)CN1 [Example 2, (2R,4S)-2-(4-boronobutyl)-4-hydroxypyrrolidine-2-carboxylic acid] | 26600 nM | 21400 nM |  |  |  |  |  |  |
| CN[C@H]1CN[C@](CCCCB(O)O)(C(=O)O)C1 [Example 24, (2S,4R)-2-(4-boronobutyl)-4-(methylamino)pyrrolidine-2-carboxylic acid] | < 3 nM | 10 nM |  |  |  |  |  |  |
| CC(C)[C@H](N)C(=O)N(C)[C@H]1CN[C@](CCCCB(O)O)(C(=O)O)C1 [Example 30, (2S,4R)-4-[[(2S)-2-amino-3-methyl-butanoyl]-methyl-amino]-2-(4-boronobutyl)pyrrolidine-2-carboxylic acid] | 1350 nM | 2420 nM |  |  |  |  |  |  |
| CC[C@H](N)C(=O)N[C@H]1CN[C@@](CCCCB(O)O)(C(=O)O)C1 [Example 14, (2R,4R)-4-((S)-2-aminobutanamido)-2-(4-boronobutyl)pyrrolidine-2-carboxylic acid] | 260 nM | 310 nM |  |  |  |  |  |  |
| CC(C)(C)[C@H](N)C(=O)N[C@H]1CN[C@@](CCCCB(O)O)(C(=O)O)C1 [Example 11, (2R,4R)-4-((S)-2-amino-3,3-dimethylbutanamido)-2-(4-boronobutyl)pyrrolidine-2-carboxylic acid] | 210 nM | 200 nM |  |  |  |  |  |  |
| NC[C@H](N)C(=O)N[C@H]1CN[C@@](CCCCB(O)O)(C(=O)O)C1 [Example 22, (2R,4R)-2-(4-boronobutyl)-4-[[(2S)-2,3-diaminopropanoyl]amino]pyrrolidine-2-carboxylic acid] | 930 nM | 1320 nM |  |  |  |  |  |  |
| COC[C@H](N)C(=O)N[C@H]1CN[C@@](CCCCB(O)O)(C(=O)O)C1 [Example 18, (2R,4R)-4-((S)-2-amino-3-methoxypropanamido)-2-(4-boronobutyl)pyrrolidine-2-carboxylic acid] | 320 nM | 380 nM | 317 mL/min/kg | 0.64 L/kg |  |  |  |  |
| CC(C)[C@@H](N)C(=O)N[C@H]1CN[C@@](CCCCB(O)O)(C(=O)O)C1 [Example 10, (2R,4R)-4-((R)-2-amino-3-methylbutanamido)-2-(4-boronobutyl)pyrrolidine-2-carboxylic acid] | 3770 nM | 4770 nM |  |  |  |  |  |  |
| CC(C)[C@](C)(N)C(=O)N[C@H]1CN[C@@](CCCCB(O)O)(C(=O)O)C1 [Example 21, (2R,4R)-4-[[(2S)-2-amino-2,3-dimethyl-butanoyl]amino]-2-(4-boronobutyl)pyrrolidine-2-carboxylic acid] | 480 nM | 680 nM |  |  |  |  |  |  |
| CN(C)[C@H]1CN[C@](CCCCB(O)O)(C(=O)O)C1 [Example 26, (2S,4R)-2-(4-boronobutyl)-4-(dimethylamino)pyrrolidine-2-carboxylic acid] | 60 nM | 150 nM |  |  |  |  |  |  |

— US11420984B2, “Arginase inhibitors and methods of use thereof” (AstraZeneca AB, priority 2018, dated 2022)
